US9724340B2, “Antitussive compositions and methods” (Attenua, Inc., priority 2015, dated 2017)

System: conscious guinea pigs
Assay: Citric acid inhalation cough model in conscious guinea pigs
Format: in vivo, guinea pig
Conditions: 30 min before citric acid aerosols 0.01M-0.3M
Protocol: Cough suppression was evaluated in conscious guinea pigs using a citric acid inhalation model (Smith et al., 2012). Guinea pigs were pretreated intraperitoneally with drug vehicle (saline), α7 PHA543613 (10 mg/kg) (FIG. 3), or (2S,3R)—N-(2-(3-pyridinyl)methyl)-1-azabicyclo[2.2.2]oct-3-yl)benzofuran-2-carboxamide (30 mg/kg) (FIG. 4). Respiration and cough reflexes were measured using a Buxco inhalation chamber connected to a Biopac data acquisition system. Thirty minutes after vehicle or drug administration, animals were challenged in sequence with ascending aerosol concentrations of citric acid (0.01M-0.3M), with each aerosol delivered for 5 minutes and with 5 minutes interval in between challenges. The cumulative coughs evoked were quantified and results are presented as a mean±standard error of the mean (SEM) of n experiments, where n refers to a single animal). Studies were performed using a nonpaired parallel group design. Differences amongst group means were evaluated by t-test or ANOVA, with a p<0.05 considered statistically significant which is represented by an asterisk (*) in FIG. 3 and FIG. 4.

Row | Structure (SMILES) | cumulative citric acid evoked coughs (in words) (30 mg/kg intraperitoneally, FIG. 4) | cumulative citric acid evoked coughs (in words) (10 mg/kg intraperitoneally, FIG. 3)
1 | O=C(N[C@@H]1C2CCN(CC2)[C@H]1Cc1cccnc1)c1cc2ccccc2o1 [(2S,3R)—N-(2-((3-pyridinyl)methyl)-1-azabicyclo[2.2.2]oct-3-yl)benzofuran-2-carboxamide] | markedly inhibited citric acid evoked coughs | –
2 | O=C(N[C@H]1CN2CCC1CC2)c1cc2ccoc2cn1 [PHA543613] | – | markedly inhibited citric acid evoked coughs
